The values below come from patent US20140315956A1, “SMALL MOLECULE INHIBITORS OF IL-6 AND USES THEREOF” (NATIONWIDE CHILDREN'S HOSPITAL, priority 2011, published 2014).

Where “and” joins values, the source holds several entries; their conditions need not be identical. Identical values can stand only once. Like-named read-outs stand apart in the source and are kept apart here.

Experiment [1] deals with IL-6-dependent murine hepatoma cell line MH60. Conditions: Omura and coworkers; cited from earlier work.
Experiment [2] has as its target T1, gp130 extracellular domain (recombinant gp130-Fc-HA) (Homo sapiens, UniProt P40189).
T1 construct: purified gp130 (amino residue 18-615); made in house; host or cells: HEK293T (plasmid from Dr. John J. Krolewski)
T1 sequence (P40189 18-615): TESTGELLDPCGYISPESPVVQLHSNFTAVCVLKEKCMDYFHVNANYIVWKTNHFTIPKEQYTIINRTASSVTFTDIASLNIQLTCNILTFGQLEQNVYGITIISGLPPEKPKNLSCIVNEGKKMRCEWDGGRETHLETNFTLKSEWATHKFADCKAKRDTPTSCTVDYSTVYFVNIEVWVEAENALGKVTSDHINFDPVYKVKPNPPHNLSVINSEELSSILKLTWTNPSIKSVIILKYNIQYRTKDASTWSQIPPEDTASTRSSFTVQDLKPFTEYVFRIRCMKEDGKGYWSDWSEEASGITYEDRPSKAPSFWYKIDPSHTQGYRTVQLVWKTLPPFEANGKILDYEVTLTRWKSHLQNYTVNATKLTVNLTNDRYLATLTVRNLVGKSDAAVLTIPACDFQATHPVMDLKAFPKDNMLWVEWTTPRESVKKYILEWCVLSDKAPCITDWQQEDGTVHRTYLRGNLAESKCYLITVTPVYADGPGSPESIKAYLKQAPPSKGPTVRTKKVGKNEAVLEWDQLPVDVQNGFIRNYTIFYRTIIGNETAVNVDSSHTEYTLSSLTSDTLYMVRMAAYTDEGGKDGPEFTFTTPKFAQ
As to the kind of experiment: Surface plasmon resonance direct binding to gp130-Fc-HA. How it is done: HEK293T cells were grown in media containing DMEM+10% fetal bovine serum (FBS),100 U/ml penicillin and […] streptomycin (Invitrogen) in a humidified 37° C. incubator with 5% CO2. Plasmid DNA expressing gp130-Fc-HA was transfected in the form of calcium phosphate precipitate into HEK293T cells (ten T75 flasks containing 5.5×10^6 cells). The supernatant was harvested sixty hours post transfection and centrifuged to remove residual cells and adjusted to pH 8.0. The supernatant was passed through a 0.45 μm filter. The gp130-Fc-HA tagged protein was immunoprecipitated using anti-HA affinity matrix (Roche Applied Bioscience).A one milliliter column containing anti-HA affinity matrix was equilibrated with 20 mM Tris-HCl, 0.1M NaCl, 0.1 mM EDTA (pH 8.0). The supernatant was applied to the equilibrated column and the column was washed successively with 20 mM Tris-HCl, 1M NaCl (pH 8.0). Bound protein was eluted with HA peptide dissolved in equilibration buffer. The column was regenerated with 0.1 M glycine (pH 2.0). Fractions containing recombinant protein were pooled, dialyzed against HBS buffer [10 mM HEPES (pH 7.4), 0.15 M NaCl, 3 mM EDTA, 0.005% P20] and concentrated by Centricon 30 (Amicon) centrifugation. Protein concentration was determined using Bradford protein assay reagent (Pierce), with bovine serum albumin (BSA, Fisher Scientific) as a standard. The purified recombinant gp130 protein was analyzed using SDS-PAGE and immunoblotting.
Surface plasmon resonance (SPR) analysis was performed using BIAcore T100. Recombinant gp130-Fc-HA was cross-linked to the flow cell on a carboxymethylated dextran matrix of a CM5 sensor chip (BIAcore) using standard amino group coupling methods according to the manufacturer's instructions. Sodium acetate (10 mM, pH 3.5) gave the best immobilization of the protein on the chip surface and unreactive groups on the chip were blocked by ethanolamine according to the manufacturer's instructions. Approximately 5000 resonance units (RU) of gp130-Fc-HA were cross-linked to the flow cell. HBS+1% DMSO were used in all buffers (running and sample) to avoid background response due to differences in buffer refractive index. For the equilibrium analysis, various concentrations of MDL-A, 1, and 2 were injected for a period of 2 min at a flow rate of 30 μl/min, in series, into flow cells containing covalently bound gp130-fc-HA and reference flow cell. Bound ligand (MDL-A, 1, and 2) in each assay was removed by passing 10 mM glycine (pH 2.2) over the chip surface. Biacore T100 Evaluation 2.0 was used for all interaction analyses. The steady-state equilibrium response (RUeq) was determined from the reference-subtracted sensogram. The kinetics parameter was calculated according to a 1:1 Langmuir binding model (A+B ? AB) by direct fitting of ligand binding sensor grams at multiple concentrations. The dissociation equilibrium constant is defined as dissociation constant (KD)=dissociation rate constant (kd)/association rate constant (ka). KD was determined by scattered analysis of equilibrium-state data obtained at different concentrations of analogues.
To examine the direct binding and calculation of equilibrium dissociation constant (KD) of MDL-A analogues with gp130 extracellular domain, surface plasmon resonance analysis was done. Protein was covalently cross linked to the dextran matrix of the biosensor chip CM5. Successively, various concentrations of MDL-A and MDL-A analogues were injected into the flow cells containing bound protein and no protein (reference). Interactions were monitored in real time and KD values were calculated by reference-substrated sensogram.
To examine the direct binding and calculate the equilibrium dissociation constant (KD) of MDL-A analogues with gp130 extracellular domain, surface plasmon resonance analysis was performed. Surface plasmon resonance (SPR) analysis was performed using a BIAcore T100. […]
On the technique in general: In SPR one partner is held on a chip, and binding of the other changes the refractive index at the surface.

For experiment [3], the system named is IL-6-dependent STAT3 tyrosine phosphorylation in HepG2 cells. Conditions: Saleh and coworkers; cited from earlier work.

In the case of `CCCCC1=C(C)C(=O)[C@@](C)(CN2c3ccccc3[C@]3(O)CCO[C@H]23)C1=O` [MDL-A, (+)-Madindoline A, reference compound], the “growth of IL-6-dependent MH60 cells” value in experiment [1] was “specifically inhibited the growth”. Besides, the dissociation constant Kd – broadly, the constant that tells how readily two partners part at equilibrium – in experiment [2] (gp130 extracellular domain, Biacore evaluation software 2.0, read-out: KD) is 288 µM; in experiment [2] (values in running text and figure legend, read-out: dissociation constant (KD)), ~300 µM and ~290 µM. Further, in experiment [3], the “IL-6-dependent STAT3 tyrosine phosphorylation” value is on record as “inhibits IL-6-dependent STAT3 tyrosine phosphorylation”.
